According to article PMC8199755, “In Vitro and In Vivo Trypanocidal Efficacy of Synthesized Nitrofurantoin Analogs” (Molecules, 2021):
Where two headings read alike, the source gives them in different places.

Key:
[1] = Cytotoxicity (Cell Counting Kit-8, 3 days); type: cell-based, bovine; settings: bovine, 37 °C, mean ± SD of triplicate
Procedure: Additionally, Madin–Darby bovine kidney cells were cultivated (density, 1 × 10^4 cells/mL) in a 96-well cell culture plate (Thermo Fisher Scientific) with the analogs, at seven different concentrations for 3 days at 37 °C. Next, 10 µl of the Cell Counting Kit-8 solution (Dojindo, Kumamoto, Japan) was added into each well […] 4 h of incubation. Absorbance was measured at 450 nm using a GloMax®-Multi+Detection System plate reader.
(§1) The half maximum inhibitory concentration (IC50) of each analog in trypanosomes and the Madin–Darby bovine kidney cells was calculated using the GraphPad Prism version 8 software (GraphPad, Inc., San Diego, CA, USA).

T. b. gambiense IL1922 = test: In vitro trypanocidal activity (CellTiter-Glo, 3 days); type: cell-based; settings: Trypanosoma brucei, 72 h, bloodstream forms, 37 °C, mean ± SD of triplicate, read-out: Trypanocidal Activity IC50 ± SD, Tbg IL1922
Procedure: (§2) The bloodstream forms of T. b. brucei GUTat3.1, T. b. rhodesiense IL1501, T. b. rhodesiense Chirundu, T. b. gambiense IL1922, and T. evansi Tansui strains were propagated in culture at 37 °C, whereas the T. congolense IL3000 strain was propagated at 33 °C in Hirumi’s modified Iscove’s medium-9, supplemented with 20% heat-inactivated fetal bovine serum. The bloodstream form cultures were maintained by replacing the entire culture supernatant with fresh medium, every other day.
(§3) The trypanocidal activity and cytotoxicity of nitrofurantoin analogs were evaluated according to previous reports, with some modifications. In brief, bloodstream forms adjusted at 2.5 × 10^3 cells/mL (T. b. brucei GUTat3.1, T. b. gambiense IL1922, and T. b. rhodesiense IL1501), 1 × 10^4 cells/mL (T. evansi Tansui and T. b. rhodesiense Chirundu), and 1 × 10^5 cells/mL (T. congolense IL3000), were cultivated in Nunc® MicroWell 96-well optical bottom plates (Thermo Fisher Scientific, Waltham, MA, USA) and exposed to various analogs at seven different concentrations for 3 days, in an incubator at 37 °C (33 °C for T. congolense IL3000). […] Twenty-five microliters of the Cell-TiterGlo® (Promega, Madison, WI, USA) reagent was added into each well, and bioluminescence was measured using a GloMax®-Multi+Detection System plate reader (Promega).
as §1

T. congolense IL3000 = test: as above; type: cell-based; settings: bloodstream forms, 33 °C, mean ± SD of triplicate, read-out: Trypanocidal Activity IC50 ± SD, Tc IL3000
Procedure: as §2, §3, §1

T. b. rhodesiense IL1501 = test: as above; type: cell-based; settings: Trypanosoma brucei, 72 h, bloodstream forms, 37 °C, mean ± SD of triplicate, read-out: Trypanocidal Activity IC50 ± SD, Tbr IL1501
Procedure: as §2, §3, §1

T. b. brucei GUTat3.1 = test: as above; type: cell-based; settings: Trypanosoma brucei, 72 h, bloodstream forms, 37 °C, mean ± SD of triplicate, read-out: Trypanocidal Activity IC50 ± SD, Tbb GUTat3.1
Procedure: as §2, §3, §1

T. evansi Tansui = test: as above; type: cell-based; settings: 72 h, bloodstream forms, 37 °C, mean ± SD of triplicate, read-out: Trypanocidal Activity IC50 ± SD, Tev Tansui
Procedure: as §2, §3, §1

[2] = tested on: T. b. rhodesiense Chirundu; test: as above; type: cell-based; settings: Trypanosoma brucei, 72 h, bloodstream forms, 37 °C, mean ± SD of triplicate, read-out: Trypanocidal Activity IC50 ± SD, Tbr Chirundu
Procedure: as §2, §3, §1

[3] = Madin–Darby bovine kidney (MDBK) cells

Structure (SMILES) | IC50 at 3 days [1, 3] | IC50 (T. b. gambiense IL1922) | IC50 (T. congolense IL3000; Trypanosoma congolense, 72 h) | IC50 (T. congolense IL3000) | IC50 (T. b. rhodesiense IL1501) | IC50 (T. b. brucei GUTat3.1) | IC50 (T. evansi Tansui) | IC50 [2] | IC50 at 3 days ([1]; MDBK cells)
CN1C(=O)CN(/N=C/c2ccc([N+](=O)[O-])o2)C1=O [Analog 1, (E)-3-Methyl-1-([(5-nitrofuran-2-yl)methylene]amino)imidazolidine-2,4-dione] | 65200 ± 12800 nM | 3600 ± 260 nM | 190 to 730 nM | 190 ± 76 nM | 7020 ± 94 nM | 3610 ± 400 nM | 1610 ± 98 nM |  | 
CCN1C(=O)CN(/N=C/c2ccc([N+](=O)[O-])o2)C1=O [Analog 2, (E)-3-Ethyl-1-([(5-nitrofuran-2-yl)methylene]amino)imidazolidine-2,4-dione] | 44800 ± 1690 nM | 11300 ± 4800 nM |  |  | 11400 ± 5240 nM | 10800 ± 4840 nM | 5390 ± 530 nM |  | 
CCCN1C(=O)CN(/N=C/c2ccc([N+](=O)[O-])o2)C1=O [Analog 3, (E)-1-([(5-Nitrofuran-2-yl)methylene]amino)-3-propylimidazolidine-2,4-dione] | 39300 ± 1090 nM | 14700 ± 1320 nM | 330 ± 180 nM |  | 14000 ± 1420 nM | 14100 ± 340 nM | 6530 ± 610 nM | 810 ± 240 nM | 
CCCCN1C(=O)CN(/N=C/c2ccc([N+](=O)[O-])o2)C1=O [Analog 4, (E)-3-Butyl-1-([(5-nitrofuran-2-yl)methylene]amino)imidazolidine-2,4-dione] | 35800 ± 3490 nM | 17200 ± 2230 nM | 310 ± 200 nM |  | 32700 ± 820 nM | 33300 ± 24300 nM | 7890 ± 530 nM | 1380 ± 340 nM | 
CCCCCN1C(=O)CN(/N=C/c2ccc([N+](=O)[O-])o2)C1=O [Analog 5, (E)-1-([(5-Nitrofuran-2-yl)methylene]amino)-3-pentylimidazolidine-2,4-dione] | 39100 ± 5860 nM | 3420 ± 1470 nM | 350 ± 150 nM |  | 5690 ± 1660 nM | 4240 ± 1990 nM | 5440 ± 170 nM |  | 
CCCCCCN1C(=O)CN(/N=C/c2ccc([N+](=O)[O-])o2)C1=O [Analog 6, (E)-3-Hexyl-1-([(5-nitrofuran-2-yl)methylene]amino)imidazolidine-2,4-dione] | 25200 ± 3520 nM | 2590 ± 280 nM | 80 ± 47 nM |  | 2610 ± 120 nM | 5760 ± 4010 nM | 3760 ± 470 nM | 170 ± 110 nM | 
CCCCCCCN1C(=O)CN(/N=C/c2ccc([N+](=O)[O-])o2)C1=O [Analog 7, (E)-3-Heptyl-1-([(5-nitrofuran-2-yl)methylene]amino)imidazolidine-2,4-dione] | 92300 ± 6520 nM | 1990 ± 750 nM | 40 ± 11 nM |  | 1450 ± 860 nM | 2060 ± 750 nM | 1020 ± 100 nM | 56 ± 26 nM | 
CCCCCCCCCCN1C(=O)CN(/N=C/c2ccc([N+](=O)[O-])o2)C1=O [Analog 10, (E)-3-Decyl-1-([(5-nitrofuran-2-yl)methylene]amino)imidazolidine-2,4-dione] | 110000 ± 14400 nM | 620 ± 700 nM | 11 ± 4.4 nM |  | 610 ± 60 nM | 650 ± 560 nM | 280 ± 25 nM | 17 ± 4.4 nM | 
O=C1CN(/N=C/c2ccc([N+](=O)[O-])o2)C(=O)N1CCCc1ccccc1 [Analog 13, (E)-1-([(5-Nitrofuran-2-yl)methylene]amino)-3-(3-phenylpropyl)imidazolidine-2,4-dione] | > 281000 nM | 4830 ± 3220 nM | 140 ± 30 nM |  | 5900 ± 3750 nM | 7290 ± 3160 nM | 3110 ± 370 nM | 140 ± 67 nM | 
O=C1CN(/N=C/c2ccc([N+](=O)[O-])o2)C(=O)N1Cc1ccccc1 [Analog 14, (E)-3-Benzyl-1-([(5-nitrofuran-2-yl)methylene]amino)imidazolidine-2,4-dione] | > 305000 nM | 2340 ± 640 nM | 180 ± 17 nM |  | 2830 ± 610 nM | 2880 ± 260 nM | 1260 ± 100 nM | 270 ± 120 nM | 
Cc1ccc(CN2C(=O)CN(/N=C/c3ccc([N+](=O)[O-])o3)C2=O)cc1 [Analog 15, (E)-3-(p-Methylbenzyl)-1-([(5-nitrofuran-2-yl)methylene]amino)imidazolidine-2,4-dione] | 34300 ± 11500 nM | 2890 ± 510 nM | 130 ± 44 nM |  | 6100 ± 47 nM | 8240 ± 3110 nM | 4230 ± 400 nM | 150 ± 68 nM | 
O=C1CN(/N=C/c2ccc([N+](=O)[O-])o2)C(=O)N1Cc1ccc(C(F)(F)F)cc1 [Analog 16, (E)-1-([(5-Nitrofuran-2-yl)methylene]amino)-3-(p-(trifluoromethyl)benzyl) imidazolidine-2,4-dione] | 56600 ± 40800 nM | 610 ± 260 nM | 20 nM |  | 960 ± 8.7 nM | 520 ± 81 nM | 440 ± 46 nM | 20 ± 12 nM | 
O=C1CN(/N=C/c2ccc([N+](=O)[O-])o2)C(=O)N1Cc1ccc([N+](=O)[O-])cc1 [Analog 17, (E)-3-(p-Nitrobenzyl)-1-([(5-nitrofuran-2-yl)methylene]amino)imidazolidine-2,4-dione] |  | 1050 ± 700 nM | 40 ± 17 nM |  | 500 ± 12 nM | 1070 ± 740 nM | 610 ± 50 nM | 40 ± 94 nM | 20100 ± 1020 nM
COc1ccc(CN2C(=O)CN(/N=C/c3ccc([N+](=O)[O-])o3)C2=O)cc1 [Analog 18, (E)-3-(p-Methoxybenzyl)-1-([(5-nitrofuran-2-yl)methylene]amino)imidazolidine-2,4-dione] | 80100 ± 36900 nM | 9780 ± 310 nM | 140 ± 30 nM |  | 10100 ± 620 nM | 9910 ± 92 nM | 2400 ± 190 nM | 330 ± 220 nM | 
O=C1CN(/N=C/c2ccc([N+](=O)[O-])o2)C(=O)N1Cc1ccc(Br)cc1 [Analog 19, (E)-3-(p-Bromobenzyl)-1-([(5-nitrofuran-2-yl)methylene]amino)imidazolidine-2,4-dione] | 28700 ± 5690 nM | 2040 ± 91 nM | 49 ± 33 nM |  | 2470 ± 690 nM | 2130 ± 230 nM | 1150 ± 110 nM | 41 ± 25 nM | 
NCCCC(N)(C(=O)O)C(F)F (stereo not drawn) [Eflornithine, reference compound] |  | 36700 ± 12900 nM | 16100 ± 2930 nM |  | 46000 ± 17100 nM | 38600 ± 9880 nM | 57200 ± 17600 nM | 35600 ± 10200 nM | 
CC1CS(=O)(=O)CCN1/N=C/c1ccc([N+](=O)[O-])o1 (stereo not drawn) [Nifurtimox, reference compound] |  | 4580 ± 2380 nM | 1060 ± 220 nM |  | 4350 ± 1590 nM | 4660 nM | 2620 ± 1400 nM | 1460 ± 350 nM | 
N=C(N)c1ccc(OCCCCCOc2ccc(C(=N)N)cc2)cc1 [Pentamidine, reference compound] |  | 14 ± 3.1 nM | 330 ± 54 nM |  | 29 ± 6.2 nM | 41 ± 2.3 nM | 0.97 ± 0.19 nM | 50 ± 12 nM | 
Cc1ccc(C(=O)Nc2ccc(S(=O)(=O)O)c3cc(S(=O)(=O)O)cc(S(=O)(=O)O)c23)cc1NC(=O)c1cccc(NC(=O)Nc2cccc(C(=O)Nc3cc(C(=O)Nc4ccc(S(=O)(=O)O)c5cc(S(=O)(=O)O)cc(S(=O)(=O)O)c45)ccc3C)c2)c1 [Suramin, reference compound] |  | 64 ± 1.8 nM | 7170 ± 870 nM |  | 76 ± 11 nM | 66 ± 5.2 nM | 380 ± 58 nM | 66 ± 71 nM | 
